Source: PubChem BioAssay (NCI)
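Grown in 96-well plates, cells were treated for 48 hours with each compound at five concentrations. Insufficient inhibition: endpoint recorded as highest concentration tested. GI50 is the concentration that inhibits growth by half. TGI is the concentration that stops growth completely.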

How the values were obtained:
Assay in all cases: DTP human tumour cell line panel, 48 h
786-0 renal = tested on: 786-0 renal
A498 renal = tested on: A498 renal
A549 NSCLC = tested on: A549 NSCLC
ACHN renal = tested on: ACHN renal
BT-549 breast = tested on: BT-549 breast
CAKI-1 renal = tested on: CAKI-1 renal
COLO 205 colon = tested on: COLO 205 colon
DU-145 prostate = tested on: DU-145 prostate
EKVX NSCLC = tested on: EKVX NSCLC
HCC-2998 colon = tested on: HCC-2998 colon
HCT-116 colon = tested on: HCT-116 colon
HCT-15 colon = tested on: HCT-15 colon
HL-60(TB) leukemia = tested on: HL-60(TB) leukemia
HOP-62 NSCLC = tested on: HOP-62 NSCLC
HOP-92 NSCLC = tested on: HOP-92 NSCLC
HS 578T breast = tested on: HS 578T breast
HT29 colon = tested on: HT29 colon
IGROV1 ovarian = tested on: IGROV1 ovarian
K-562 leukemia = tested on: K-562 leukemia
KM12 colon = tested on: KM12 colon
LOX IMVI melanoma = tested on: LOX IMVI melanoma
M14 melanoma = tested on: M14 melanoma
MALME-3M melanoma = tested on: MALME-3M melanoma
MCF7 breast = tested on: MCF7 breast
MDA-MB-231 breast = tested on: MDA-MB-231 breast
MDA-MB-435 = tested on: MDA-MB-435
MOLT-4 leukemia = tested on: MOLT-4 leukemia
NCI-H226 lung = tested on: NCI-H226 lung
NCI-H460 lung = tested on: NCI-H460 lung
NCI-H522 lung = tested on: NCI-H522 lung
NCI/ADR-RES ovarian = tested on: NCI/ADR-RES ovarian
OVCAR-3 ovarian = tested on: OVCAR-3 ovarian
OVCAR-4 ovarian = tested on: OVCAR-4 ovarian
OVCAR-5 ovarian = tested on: OVCAR-5 ovarian
OVCAR-8 ovarian = tested on: OVCAR-8 ovarian
PC-3 prostate = tested on: PC-3 prostate
RPMI-8226 leukemia = tested on: RPMI-8226 leukemia
RXF 393 renal = tested on: RXF 393 renal
SF-268 CNS = tested on: SF-268 CNS
SF-295 CNS = tested on: SF-295 CNS
SF-539 CNS = tested on: SF-539 CNS
SK-MEL-2 melanoma = tested on: SK-MEL-2 melanoma
SK-MEL-28 melanoma = tested on: SK-MEL-28 melanoma
SK-MEL-5 melanoma = tested on: SK-MEL-5 melanoma
SK-OV-3 ovarian = tested on: SK-OV-3 ovarian
SN12C renal = tested on: SN12C renal
SNB-19 CNS = tested on: SNB-19 CNS
SNB-75 CNS = tested on: SNB-75 CNS
SR leukemia = tested on: SR leukemia
SW-620 colon = tested on: SW-620 colon
T-47D breast = tested on: T-47D breast
TK-10 renal = tested on: TK-10 renal
U251 CNS = tested on: U251 CNS
UACC-257 melanoma = tested on: UACC-257 melanoma
UACC-62 melanoma = tested on: UACC-62 melanoma
UO-31 renal = tested on: UO-31 renal

In the case of `Cc1nc(-c2cc3ccccc3oc2=O)ccc1C(=O)/C=C/c1ccccn1`, the GI50 (786-0 renal) is reported as greater than 100 µM, the TGI (786-0 renal) is reported as greater than 100 µM and the GI50 (A498 renal) is reported as greater than 100 µM. It also gave a TGI (A498 renal) greater than 100 µM, a GI50 (A549 NSCLC) greater than 100 µM and a TGI (A549 NSCLC) greater than 100 µM. For the same molecule, the GI50 (ACHN renal) was greater than 100 µM, the TGI (ACHN renal) was greater than 100 µM and the GI50 (BT-549 breast) was greater than 100 µM. It also gave a TGI (BT-549 breast) greater than 100 µM, a GI50 (CAKI-1 renal) greater than 100 µM and a TGI (CAKI-1 renal) greater than 100 µM. The GI50 (COLO 205 colon) was greater than 100 µM, the TGI (COLO 205 colon) was greater than 100 µM and the GI50 (DU-145 prostate) was greater than 100 µM. It also gave a TGI (DU-145 prostate) greater than 100 µM, a GI50 (EKVX NSCLC) greater than 100 µM and a TGI (EKVX NSCLC) greater than 100 µM. The GI50 (HCC-2998 colon) was greater than 100 µM, the TGI (HCC-2998 colon) was greater than 100 µM and the GI50 (HCT-116 colon) was 6.34 µM. It also gave a TGI (HCT-116 colon) greater than 100 µM, a GI50 (HCT-15 colon) greater than 100 µM and a TGI (HCT-15 colon) greater than 100 µM. It also gave a GI50 (HL-60(TB) leukemia) greater than 100 µM, a TGI (HL-60(TB) leukemia) greater than 100 µM and a GI50 (HOP-62 NSCLC) greater than 100 µM. The TGI (HOP-62 NSCLC) was greater than 100 µM, the GI50 (HOP-92 NSCLC) was 7.25 µM and the TGI (HOP-92 NSCLC) was greater than 100 µM. It also gave a GI50 (HS 578T breast) greater than 100 µM, a TGI (HS 578T breast) greater than 100 µM and a GI50 (HT29 colon) greater than 100 µM. It also gave a TGI (HT29 colon) greater than 100 µM, a GI50 (IGROV1 ovarian) greater than 100 µM and a TGI (IGROV1 ovarian) greater than 100 µM. The GI50 (K-562 leukemia) was 6.47 µM, the TGI (K-562 leukemia) was greater than 100 µM and the GI50 (KM12 colon) was greater than 100 µM. The TGI (KM12 colon) was greater than 100 µM, the GI50 (LOX IMVI melanoma) was 3.2 µM and the TGI (LOX IMVI melanoma) was greater than 100 µM. The GI50 (M14 melanoma) was greater than 100 µM, the TGI (M14 melanoma) was greater than 100 µM and the GI50 (MALME-3M melanoma) was greater than 100 µM. It also gave a TGI (MALME-3M melanoma) greater than 100 µM, a GI50 (MCF7 breast) of 3.72 µM and a TGI (MCF7 breast) greater than 100 µM. It also gave a GI50 (MDA-MB-231 breast) greater than 100 µM, a TGI (MDA-MB-231 breast) greater than 100 µM and a GI50 (MDA-MB-435) greater than 100 µM. For the same molecule, the TGI (MDA-MB-435) was greater than 100 µM, the GI50 (MOLT-4 leukemia) was greater than 100 µM and the TGI (MOLT-4 leukemia) was greater than 100 µM. It also gave a GI50 (NCI-H226 lung) greater than 100 µM, a TGI (NCI-H226 lung) greater than 100 µM and a GI50 (NCI-H460 lung) greater than 100 µM. The TGI (NCI-H460 lung) was greater than 100 µM, the GI50 (NCI-H522 lung) was greater than 100 µM and the TGI (NCI-H522 lung) was greater than 100 µM. The GI50 (NCI/ADR-RES ovarian) was greater than 100 µM, the TGI (NCI/ADR-RES ovarian) was greater than 100 µM and the GI50 (OVCAR-3 ovarian) was greater than 100 µM. The TGI (OVCAR-3 ovarian) was greater than 100 µM, the GI50 (OVCAR-4 ovarian) was greater than 100 µM and the TGI (OVCAR-4 ovarian) was greater than 100 µM. It also gave a GI50 (OVCAR-5 ovarian) greater than 100 µM, a TGI (OVCAR-5 ovarian) greater than 100 µM and a GI50 (OVCAR-8 ovarian) greater than 100 µM. For the same molecule, the TGI (OVCAR-8 ovarian) was greater than 100 µM, the GI50 (PC-3 prostate) was greater than 100 µM and the TGI (PC-3 prostate) was greater than 100 µM. For the same molecule, the GI50 (RPMI-8226 leukemia) was 3.41 µM, the TGI (RPMI-8226 leukemia) was greater than 100 µM and the GI50 (RXF 393 renal) was greater than 100 µM. For the same molecule, the TGI (RXF 393 renal) was greater than 100 µM, the GI50 (SF-268 CNS) was greater than 100 µM and the TGI (SF-268 CNS) was greater than 100 µM. The GI50 (SF-295 CNS) was greater than 100 µM, the TGI (SF-295 CNS) was greater than 100 µM and the GI50 (SF-539 CNS) was greater than 100 µM. It also gave a TGI (SF-539 CNS) greater than 100 µM, a GI50 (SK-MEL-2 melanoma) greater than 100 µM and a TGI (SK-MEL-2 melanoma) greater than 100 µM. It also gave a GI50 (SK-MEL-28 melanoma) greater than 100 µM, a TGI (SK-MEL-28 melanoma) greater than 100 µM and a GI50 (SK-MEL-5 melanoma) greater than 100 µM. The TGI (SK-MEL-5 melanoma) was greater than 100 µM, the GI50 (SK-OV-3 ovarian) was greater than 100 µM and the TGI (SK-OV-3 ovarian) was greater than 100 µM. The GI50 (SN12C renal) was greater than 100 µM, the TGI (SN12C renal) was greater than 100 µM and the GI50 (SNB-19 CNS) was greater than 100 µM. For the same molecule, the TGI (SNB-19 CNS) was greater than 100 µM, the GI50 (SNB-75 CNS) was greater than 100 µM and the TGI (SNB-75 CNS) was greater than 100 µM. The GI50 (SR leukemia) was 5.3 µM, the TGI (SR leukemia) was greater than 100 µM and the GI50 (SW-620 colon) was 6.77 µM. It also gave a TGI (SW-620 colon) greater than 100 µM, a GI50 (T-47D breast) greater than 100 µM and a TGI (T-47D breast) greater than 100 µM. For the same molecule, the GI50 (TK-10 renal) was greater than 100 µM, the TGI (TK-10 renal) was greater than 100 µM and the GI50 (U251 CNS) was 8.49 µM. For the same molecule, the TGI (U251 CNS) was greater than 100 µM, the GI50 (UACC-257 melanoma) was greater than 100 µM and the TGI (UACC-257 melanoma) was greater than 100 µM. For the same molecule, the GI50 (UACC-62 melanoma) was greater than 100 µM, the TGI (UACC-62 melanoma) was greater than 100 µM and the GI50 (UO-31 renal) was greater than 100 µM. For the same molecule, the TGI (UO-31 renal) was greater than 100 µM.
